In paper PMC5795052 (Open Biology, 2018):

Experiments:
ACKR3 [1] = details: ref [21]; cited from earlier work
Protocol: The effects of the TM peptide analogues of ACKR3 on aVP-induced recruitment of β-arrestin 2 to ACKR3-Tango in cells co-expressing ACKR3-Tango and AVPR1A are shown in figure 9h.

ACKR3 : AVPR1A heteromer = assay: PLA signals for ACKR3 : AVPR1A interactions in hVSMC; assay type: cell-based, human; details: 10 µM, 30 min at 37°C; figure 8b; *p < 0.05 versus vehicle
Protocol: (§1) hVSMCs (primary aortic smooth muscle cells, ATCC PCS-100-012), A7r5 cells (ATCC-CRL-1444) and HEK293T cells (ATCC-CRL-11268) were purchased from American Type Culture Collection. hVSMCs were cultured in vascular basal media (ATCC PCS-100-030) supplemented with the vascular smooth muscle growth kit (ATCC PCS-100-042), containing 100 U ml^−1 penicillin and 100 µg ml^−1 streptomycin. hVSMCs were used between passages 2–5. HEK293T and A7r5 cells were cultured in high-glucose Dulbecco's Modified Eagle's Medium containing 10 mg ml^−1 sodium pyruvate, 2 mM L-glutamine, 10% (vol/vol) FBS, 1× non-essential amino acids, 100 U ml^−1 penicillin and 100 µg ml^−1 streptomycin. The HTLA cell line, a HEK293 cell line stably expressing a tTA-dependent luciferase reporter and a β-arrestin 2–TEV fusion gene were generously provided by the laboratory of Dr Bryan Roth and maintained in high-glucose Dulbecco's Modified Eagle's Medium supplemented with 10% (vol/vol) FBS, 1× non-essential amino acids, 100 U ml^−1 penicillin, 100 µg ml^−1 streptomycin, 50 µg ml^−1 hygromycin B and 2 µg ml^−1 puromycin. All cells were cultured in a humidified environment at 37°C, 5% CO2.
(§2) PLAs were performed as described in detail previously. In brief, cells were grown and fixed on eight-well chamber slides (Nunc). […]

[2] = system: aVP-induced IP3 production in hVSMC; assay: IP3 production (ELISA) in hVSMC upon aVP stimulation; assay type: cell-based, human; details: TM peptides 10 µM, 30 min at 37°C, then aVP 1 µM, 5 min; n = 4; figure 8c
Protocol: as §1
ACKR3 and CXCR4 siRNA gene silencing was performed as described previously. In brief, cells were grown in 2 ml Accell siRNA delivery media per well (Dharmacon) in six-well plates (Nunc). Commercially available Accell ACKR3 and CXCR4 siRNA were reconstituted with 1× siRNA buffer to a stock concentration of 100 µM. Cells were then transfected with 1 µM ACKR3/CXCR4 siRNA and incubated for 72 h at 37°C, 5% CO2. Accell NT-siRNA pool was used as a negative control. After 72 h, cells were assayed for receptor cell surface expression and used for signalling experiments.
IP3 enzyme-linked immunosorbent assays were purchased from LS Bio and performed as per the manufacturer's protocol (LS BIO F10644). In brief, hVSMCs were grown to confluency in six-well dishes (Nunc) and then treated as described in the Results section. Cells were then washed once with cold PBS, 225 µl of cold PBS was added to each well and cells were lysed by ultrasonication. The cell lysate was centrifuged for 10 min at 4°C at 1500g to remove cellular debris. The total protein concentration in the supernatant was determined with the Bio-Rad DC Protein Assay as per the manufacturer's protocol (Bio-Rad 500-0116). Equivalent amounts of total protein were added to the ELISA strips diluted in the provided sample diluent (1 : 5 and 1 : 10). The assay was then completed as per the manufacturer's protocol. Optical densities were read on a Biotek Synergy II microplate reader (absorbance at 450 nm), and IP3 concentrations were extrapolated from the standard curve.

CXCR4 : AVPR1A heteromer = assay: PLA signals for CXCR4 : AVPR1A interactions in hVSMC; assay type: cell-based, human; details: 10 µM, 30 min at 37°C; figure 8b
Protocol: as §1, §2

ACKR3 [3] = assay: β-arrestin 2 recruitment assay (PRESTO-Tango) for ACKR3 co-expressed with pcDNA3 or HA-AVPR1A; assay type: cell-based, human; details: cells co-expressing ACKR3-Tango and AVPR1A, TM peptides 10 µM, 30 min at 37°C, figure 9h; for effect of TM peptides on efficacy of aVP to induce β-arrestin 2 recruitment to ACKR3-Tango: then aVP, versus vehicle
Source text: The human AVPR1A cDNA sequence was from the AVPR1A-TANGO plasmid (Addgene, plasmid #66225). The hRLuc cDNA was PCR-amplified from pIRES-Myc-hCXCR4-Rluc, which was generously provided by Dr Michel Bouvier, with primers carrying the AgeI and XbaI sites at either end, respectively, and ligated with the C-terminus of AVPR1A at the corresponding sites. Human CXCR4 and ACKR3 cDNAs were from the CXCR4-TANGO (Addgene, plasmid #66262) and the ACKR3-TANGO (Addgene, plasmid #66265) plasmids. The EYFP cDNA was PCR-amplified from pEYFP with primers harbouring AgeI and XbaI sites and ligated with the C-terminus of ACKR3. All plasmids were confirmed by sequencing.
as §1
The PRESTO-Tango (parallel receptorome expression and screening via transcriptional output, with transcriptional activation following arrestin translocation) assay was performed as recently described. The Tango plasmids were a gift from Dr Bryan Roth (all from Addgene). HTLA cells (2.5 × 10^5 per well) were seeded in a six-well plate and transfected with 1.5 µg of the Tango plasmids using Lipofectamine 3000 (ThermoScientific). The following day, transfected HTLA cells (1 × 10^5 cells per well) were plated onto poly-L-lysine precoated 96-well microplates and allowed to attach to the plate surface for at least 4 h prior to treatment. Proteins used for treatment were prepared in twice the final concentration in culture media, added at a 1 : 1 vol/vol ratio and incubated overnight at 37°C, 5% CO2 in a humidified environment. The following morning, media were removed from cell culture plates and replaced with a 100 µl 1 : 5 mixture of Bright-Glo (Promega) and 1× HBSS, 20 mM HEPES solution. Plates were then incubated at room temperature before measuring luminescence on a Biotek Synergy II plate reader.

| Sequence | behaviour in β-arrestin 2 recruitment to ACKR3-Tango upon agonist stimulation (ACKR3 [1]) | effect of TM peptides on PLA signals for AVPR1A : ACKR3 interactions (ACKR3 : AVPR1A heteromer) | effect of TM peptides on aVP-induced IP3 production [2] | effect of TM peptides on PLA signals for AVPR1A : CXCR4 interactions (CXCR4 : AVPR1A heteromer) | effect of TM peptides on efficacy of aVP to induce β-arrestin 2 recruitment to ACKR3-Tango (ACKR3 [3]) | inhibition of aVP-induced β-arrestin 2 recruitment to ACKR3-Tango (comparison TM2/TM4) (ACKR3 [3]) | mode of antagonism of aVP-induced β-arrestin 2 recruitment to ACKR3-Tango (ACKR3 [3]) |
| --- | --- | --- | --- | --- | --- | --- | --- |
| VVCILWLLAFCVSLPDTYYLDD [TM4, peptide analogue of transmembrane helix 4 (TM4) of ACKR3, described previously [21]] | behaviour similar to the TM2 peptide, but this effect did not reach statistical significance | reduced PLA signals for AVPR1A : ACKR3 interactions | inhibited aVP-induced IP3 production | did not increase AVPR1A : CXCR4 interactions | significantly reduced the efficacy of aVP to induce β-arrestin 2 recruitment | inhibited aVP-induced β-arrestin 2 recruitment to ACKR3-Tango with comparable efficacy | non-competitive antagonists |
| DDDLHVTQCLSLVHCCVNPVLYSFIN [TM7, peptide analogue of transmembrane helix 7 (TM7) of ACKR3, described previously [21]] | inactive |  | ineffective |  | did not show significant effects |  |  |
| YILNLAIADLWVVLTIPVWVVDDD [TM2, peptide analogue of transmembrane helix 2 (TM2) of ACKR3, described previously [21]] | competitive antagonist | reduced PLA signals for AVPR1A : ACKR3 interactions | inhibited aVP-induced IP3 production | did not increase AVPR1A : CXCR4 interactions | significantly reduced the efficacy of aVP to induce β-arrestin 2 recruitment | inhibited aVP-induced β-arrestin 2 recruitment to ACKR3-Tango with comparable efficacy | non-competitive antagonists |
